Measured values as given in PubChem BioAssay (NCI).
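Following 48 hours of exposure in 96-well plates, responses at five concentrations were used to interpolate endpoints linearly. Abbreviation: GI50, concentration required for 50% inhibition of growth. The concentration for full growth arrest is given as TGI.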

Legend:
Assay in all cases: inhibition of tumour cell growth, NCI panel, 48 h
CAKI-1 renal = tested on: CAKI-1 renal
CCRF-CEM leukemia = tested on: CCRF-CEM leukemia
SF-295 CNS = tested on: SF-295 CNS
HOP-62 NSCLC = tested on: HOP-62 NSCLC
PC-3 prostate = tested on: PC-3 prostate
MALME-3M melanoma = tested on: MALME-3M melanoma
SK-OV-3 ovarian = tested on: SK-OV-3 ovarian
U251 CNS = tested on: U251 CNS
MDA-MB-435 = tested on: MDA-MB-435
T-47D breast = tested on: T-47D breast
UACC-62 melanoma = tested on: UACC-62 melanoma
SK-MEL-5 melanoma = tested on: SK-MEL-5 melanoma
MDA-MB-231 breast = tested on: MDA-MB-231 breast
OVCAR-5 ovarian = tested on: OVCAR-5 ovarian
COLO 205 colon = tested on: COLO 205 colon
SK-MEL-2 melanoma = tested on: SK-MEL-2 melanoma
SN12C renal = tested on: SN12C renal
KM12 colon = tested on: KM12 colon
HOP-92 NSCLC = tested on: HOP-92 NSCLC
EKVX NSCLC = tested on: EKVX NSCLC
SF-539 CNS = tested on: SF-539 CNS
HCT-15 colon = tested on: HCT-15 colon
OVCAR-3 ovarian = tested on: OVCAR-3 ovarian
BT-549 breast = tested on: BT-549 breast
MOLT-4 leukemia = tested on: MOLT-4 leukemia
DU-145 prostate = tested on: DU-145 prostate
NCI-H460 lung = tested on: NCI-H460 lung
NCI-H522 lung = tested on: NCI-H522 lung
HS 578T breast = tested on: HS 578T breast
SK-MEL-28 melanoma = tested on: SK-MEL-28 melanoma
NCI-H226 lung = tested on: NCI-H226 lung
SNB-19 CNS = tested on: SNB-19 CNS
UO-31 renal = tested on: UO-31 renal
HL-60(TB) leukemia = tested on: HL-60(TB) leukemia
M14 melanoma = tested on: M14 melanoma
UACC-257 melanoma = tested on: UACC-257 melanoma
SF-268 CNS = tested on: SF-268 CNS
OVCAR-4 ovarian = tested on: OVCAR-4 ovarian
SNB-75 CNS = tested on: SNB-75 CNS
HCT-116 colon = tested on: HCT-116 colon
RPMI-8226 leukemia = tested on: RPMI-8226 leukemia
TK-10 renal = tested on: TK-10 renal
K-562 leukemia = tested on: K-562 leukemia
HT29 colon = tested on: HT29 colon
SW-620 colon = tested on: SW-620 colon
LOX IMVI melanoma = tested on: LOX IMVI melanoma
NCI/ADR-RES ovarian = tested on: NCI/ADR-RES ovarian
RXF 393 renal = tested on: RXF 393 renal
HCC-2998 colon = tested on: HCC-2998 colon
SR leukemia = tested on: SR leukemia
A549 NSCLC = tested on: A549 NSCLC
OVCAR-8 ovarian = tested on: OVCAR-8 ovarian
A498 renal = tested on: A498 renal
ACHN renal = tested on: ACHN renal
MCF7 breast = tested on: MCF7 breast
IGROV1 ovarian = tested on: IGROV1 ovarian
NCI-H23 lung = tested on: NCI-H23 lung
786-0 renal = tested on: 786-0 renal

With `COc1ccc2c(c1)C(=O)c1c-2n(CCCN=[N+]=[N-])c(=O)c2cc(N)ccc12` as the compound, how does the GI50 (CAKI-1 renal) read?
The GI50 was over 100 µM.

What about the TGI (CAKI-1 renal) of the same compound?
Its TGI is over 100 µM.

And the GI50 (CCRF-CEM leukemia)?
The GI50 was over 100 µM.

What about the TGI (CCRF-CEM leukemia) of the same compound?
The TGI was over 100 µM.

What about the GI50 (SF-295 CNS) of the same compound?
The GI50 was over 100 µM.

And the TGI (SF-295 CNS)?
The TGI was over 100 µM.

What about the GI50 (HOP-62 NSCLC) of the same compound?
The GI50 was over 100 µM.

What about the TGI (HOP-62 NSCLC) of the same compound?
Its TGI is over 100 µM.

What about the GI50 (PC-3 prostate) of the same compound?
The GI50 was over 100 µM.

What about the TGI (PC-3 prostate) of the same compound?
Its TGI is over 100 µM.

And the GI50 (MALME-3M melanoma)?
The GI50 was over 100 µM.

What about the TGI (MALME-3M melanoma) of the same compound?
Its TGI is over 100 µM.

What about the GI50 (SK-OV-3 ovarian) of the same compound?
Its GI50 is over 100 µM.

And the TGI (SK-OV-3 ovarian)?
Its TGI is over 100 µM.

What about the GI50 (U251 CNS) of the same compound?
The GI50 was over 100 µM.

What about the TGI (U251 CNS) of the same compound?
The TGI was over 100 µM.

What about the GI50 (MDA-MB-435) of the same compound?
The GI50 was over 100 µM.

And the TGI (MDA-MB-435)?
Its TGI is over 100 µM.

What about the GI50 (T-47D breast) of the same compound?
The GI50 was over 100 µM.

And the TGI (T-47D breast)?
The TGI was over 100 µM.

And the GI50 (UACC-62 melanoma)?
The GI50 was over 100 µM.

And the TGI (UACC-62 melanoma)?
Its TGI is over 100 µM.

And the GI50 (SK-MEL-5 melanoma)?
Its GI50 is over 100 µM.

And the TGI (SK-MEL-5 melanoma)?
Its TGI is over 100 µM.

What about the GI50 (MDA-MB-231 breast) of the same compound?
The GI50 was over 100 µM.

And the TGI (MDA-MB-231 breast)?
Its TGI is over 100 µM.

And the GI50 (OVCAR-5 ovarian)?
The GI50 was over 100 µM.

What about the TGI (OVCAR-5 ovarian) of the same compound?
Its TGI is over 100 µM.

And the GI50 (COLO 205 colon)?
The GI50 was over 100 µM.

What about the TGI (COLO 205 colon) of the same compound?
The TGI was over 100 µM.

What about the GI50 (SK-MEL-2 melanoma) of the same compound?
Its GI50 is over 100 µM.

What about the TGI (SK-MEL-2 melanoma) of the same compound?
The TGI was over 100 µM.

And the GI50 (SN12C renal)?
The GI50 was over 100 µM.

And the TGI (SN12C renal)?
The TGI was over 100 µM.

And the GI50 (KM12 colon)?
The GI50 was 53.6 µM.

And the TGI (KM12 colon)?
Its TGI is over 100 µM.

And the GI50 (HOP-92 NSCLC)?
Its GI50 is 58.8 µM.

What about the TGI (HOP-92 NSCLC) of the same compound?
The TGI was over 100 µM.

And the GI50 (EKVX NSCLC)?
The GI50 was over 100 µM.

And the TGI (EKVX NSCLC)?
The TGI was over 100 µM.

And the GI50 (SF-539 CNS)?
The GI50 was over 100 µM.

And the TGI (SF-539 CNS)?
The TGI was over 100 µM.

What about the GI50 (HCT-15 colon) of the same compound?
The GI50 was over 100 µM.

And the TGI (HCT-15 colon)?
Its TGI is over 100 µM.

What about the GI50 (OVCAR-3 ovarian) of the same compound?
Its GI50 is over 100 µM.

What about the TGI (OVCAR-3 ovarian) of the same compound?
The TGI was over 100 µM.

What about the GI50 (BT-549 breast) of the same compound?
The GI50 was over 100 µM.

And the TGI (BT-549 breast)?
The TGI was over 100 µM.

And the GI50 (MOLT-4 leukemia)?
The GI50 was over 100 µM.

What about the TGI (MOLT-4 leukemia) of the same compound?
Its TGI is over 100 µM.

And the GI50 (DU-145 prostate)?
The GI50 was over 100 µM.

And the TGI (DU-145 prostate)?
Its TGI is over 100 µM.

And the GI50 (NCI-H460 lung)?
Its GI50 is over 100 µM.

And the TGI (NCI-H460 lung)?
The TGI was over 100 µM.

And the GI50 (NCI-H522 lung)?
The GI50 was over 100 µM.

What about the TGI (NCI-H522 lung) of the same compound?
Its TGI is over 100 µM.

What about the GI50 (HS 578T breast) of the same compound?
Its GI50 is over 100 µM.

What about the TGI (HS 578T breast) of the same compound?
The TGI was over 100 µM.

What about the TGI (SK-MEL-28 melanoma) of the same compound?
Its TGI is over 100 µM.

And the GI50 (NCI-H226 lung)?
Its GI50 is over 100 µM.

And the TGI (NCI-H226 lung)?
Its TGI is over 100 µM.

What about the GI50 (SNB-19 CNS) of the same compound?
Its GI50 is over 100 µM.

What about the TGI (SNB-19 CNS) of the same compound?
The TGI was over 100 µM.

And the GI50 (UO-31 renal)?
The GI50 was over 100 µM.

And the TGI (UO-31 renal)?
The TGI was over 100 µM.

And the GI50 (HL-60(TB) leukemia)?
Its GI50 is over 100 µM.

What about the TGI (HL-60(TB) leukemia) of the same compound?
The TGI was over 100 µM.

And the GI50 (M14 melanoma)?
The GI50 was over 100 µM.

And the TGI (M14 melanoma)?
Its TGI is over 100 µM.

What about the GI50 (UACC-257 melanoma) of the same compound?
Its GI50 is over 100 µM.

What about the TGI (UACC-257 melanoma) of the same compound?
Its TGI is over 100 µM.

What about the GI50 (SF-268 CNS) of the same compound?
Its GI50 is over 100 µM.

What about the TGI (SF-268 CNS) of the same compound?
Its TGI is over 100 µM.

What about the GI50 (OVCAR-4 ovarian) of the same compound?
The GI50 was 17.8 µM.

And the TGI (OVCAR-4 ovarian)?
Its TGI is over 100 µM.

And the TGI (SNB-75 CNS)?
Its TGI is over 100 µM.

And the GI50 (HCT-116 colon)?
Its GI50 is over 100 µM.

What about the TGI (HCT-116 colon) of the same compound?
Its TGI is over 100 µM.

And the GI50 (RPMI-8226 leukemia)?
Its GI50 is over 100 µM.

And the TGI (RPMI-8226 leukemia)?
Its TGI is over 100 µM.

And the GI50 (TK-10 renal)?
The GI50 was over 100 µM.

What about the TGI (TK-10 renal) of the same compound?
The TGI was over 100 µM.

What about the GI50 (K-562 leukemia) of the same compound?
The GI50 was over 100 µM.

What about the TGI (K-562 leukemia) of the same compound?
The TGI was over 100 µM.

And the GI50 (HT29 colon)?
The GI50 was 47.6 µM.

What about the TGI (HT29 colon) of the same compound?
The TGI was over 100 µM.

And the GI50 (SW-620 colon)?
The GI50 was over 100 µM.

And the TGI (SW-620 colon)?
Its TGI is over 100 µM.

What about the GI50 (LOX IMVI melanoma) of the same compound?
The GI50 was over 100 µM.

And the TGI (LOX IMVI melanoma)?
Its TGI is over 100 µM.

What about the GI50 (NCI/ADR-RES ovarian) of the same compound?
Its GI50 is over 100 µM.

And the TGI (NCI/ADR-RES ovarian)?
The TGI was over 100 µM.

And the GI50 (RXF 393 renal)?
Its GI50 is 57.6 µM.

What about the TGI (RXF 393 renal) of the same compound?
Its TGI is over 100 µM.

And the GI50 (HCC-2998 colon)?
The GI50 was over 100 µM.

And the TGI (HCC-2998 colon)?
Its TGI is over 100 µM.

And the GI50 (SR leukemia)?
The GI50 was 89.6 µM.

What about the TGI (SR leukemia) of the same compound?
Its TGI is over 100 µM.

And the GI50 (A549 NSCLC)?
The GI50 was over 100 µM.

What about the TGI (A549 NSCLC) of the same compound?
The TGI was over 100 µM.

And the GI50 (OVCAR-8 ovarian)?
Its GI50 is over 100 µM.

What about the TGI (OVCAR-8 ovarian) of the same compound?
Its TGI is over 100 µM.

What about the GI50 (A498 renal) of the same compound?
Its GI50 is over 100 µM.

And the TGI (A498 renal)?
Its TGI is over 100 µM.

What about the GI50 (ACHN renal) of the same compound?
Its GI50 is over 100 µM.

And the TGI (ACHN renal)?
The TGI was over 100 µM.

What about the GI50 (MCF7 breast) of the same compound?
The GI50 was over 100 µM.

And the TGI (MCF7 breast)?
Its TGI is over 100 µM.

What about the GI50 (IGROV1 ovarian) of the same compound?
Its GI50 is over 100 µM.

What about the TGI (IGROV1 ovarian) of the same compound?
Its TGI is over 100 µM.

And the GI50 (NCI-H23 lung)?
Its GI50 is over 100 µM.

What about the TGI (NCI-H23 lung) of the same compound?
The TGI was over 100 µM.

And the GI50 (786-0 renal)?
Its GI50 is over 100 µM.

And the TGI (786-0 renal)?
Its TGI is over 100 µM.
